Measured values taken from US20150265514A1, “METHODS OF INHIBITING HAIR GROWTH” (NOGRA PHARMA LIMITED, priority 2012, published 2015).
“Also recorded” adds a separate entry of the source.

What was measured:
[1] = tested on: anagen VI hair follicles (HFs); experiment: HF cycle staging (anagen/catagen) in hair follicle organ culture; type: cell-based, human
Description: (§1) Normally pigmented anagen VI hair follicles (HFs) (grey/white HFs were excluded from the study) were microdissected from normal human scalp skin and organ cultured following the Philpott model. Compound A or vehicle was administered once for each change of medium (i.e. every 48 h/72 h).
(§2) Details regarding tissue specimen origin used in the present example are as described in Example 2 above.
HF cycle staging was carried out according to previously defined morphological criteria, and the percentage of HFs in anagen and early, mid, or late catagen was determined.
(§3) To evaluate apoptotic cells in colocalization with a proliferation marker Ki-67, a Ki-67/terminal dUTP nick-end labeling (TUNEL) double-staining method was used. Cryostat sections were fixed in paraformaldehyde and ethanol-acetic acid (2:1) and labeled with a digoxigenin-deoxy-UTP (ApopTag fluorescein in situ apoptosis detection kit; Intergen, Purchase, N.Y.) in the presence of terminal deoxynucleotidyl transferase, followed by incubation with a mouse anti-Ki-67 antiserum (1:20 in PBS overnight at 4 C; Dako, Glostrup, Denmark). TUNEL-positive cells were visualized by an antidigoxigenin fluorescein isothiocyanate-conjugated antibody (ApopTag kit), whereas Ki-67 was detected by a rhodamine-labeled goat antimouse antibody (Jackson ImmunoResearch, West Grove, Pa.). Negative controls were performed by omitting terminal deoxynucleotidyltransferase and the Ki-67 antibody. Counterstaining was performed with 4′,6-diamidino-2-phenylindole (DAPI) (Roche Molecular Biochemicals GmbH, Mannheim, Germany). Quantitative immunohistomorphometry was performed; Ki-67-, TUNEL-, or DAPI-positive cells were counted in a previously defined reference region of the HF matrix, and the percentage of Ki-67/TUNEL-positive cells were determined. Statistical analysis was performed using a two-tailed Student's t-test for unpaired samples. […] In order to avoid data distortion by individual experiments, rigid exclusion criteria were defined that allowed to exclude one individual experiment (out of 5-6) per read-out parameter. […]

[2] = tested on: anagen VI hair follicles (HFs); experiment: LDH activity in supernatant of hair follicle organ culture (cytotoxicity); type: cell-based, human; conditions: for LDH activity in the supernatant: 0.1 mM dose, day 6, pooled data
Description: as §1, §2
LDH activity in the supernatant can serve as an indicator of cytotoxicity and was measured following the manufacturer's instructions (Cytotoxicity Detection Kit; Roche, Mannheim, Germany). The absorbance of the samples was measured at 490 nm using an ELISA plate-reader.
as §3, with “determined.” for “determined. Statistical analysis was performed using a two-tailed Student's t-test for unpaired samples.”

[3] = tested on: K19; experiment: K19 quantitative immunohistochemistry in organ-cultured human scalp hair follicles; type: cell-based; conditions: for Keratin 19 immunoreactivity: all concentrations tested
Description: (§4) Normal human scalp skin was obtained from 6 women undergoing routine face-lift surgery after informed consent. All experiments were performed according to Helsinki guidelines, with appropriate ethics committee approval.
as §1
A previously described protocol was used to investigate K19 expression (Kloepper et al., 2008). Briefly, acetone-fixed cryosections were pre-treated with goat serum (10% in Tris-buffered saline, Dako). The sections were incubated first with primary antibodies against K19 (mouse anti-human: K19-1:10; overnight, at 4° C.; PROGEN, Heidelberg, Germany;) and then with FITC-labeled goat anti-mouse (1:200 in TBS, for 45 min, RT, Jackson ImmunoResearch) immunoglobulins as secondary antibodies. Counterstaining was performed with DAPI (Boehringer Mannheim, Mannheim, Germany). The intensity of this immunostaining was quantified by ImageJ software (National Institutes of Health). The staining intensity of defined reference regions in the HF was measured and compared between control and Compound A-treated groups. The percentage of K19-positive cells in comparison to the total amount of cells in the ORS was calculated.
Statistical analysis was performed using a two-tailed Student's t-test for unpaired samples. For meta-analysis purposes, a total of six assays (each with HFs from a different female individual) were run. […] In order to avoid data distortion by individual experiments, rigid exclusion criteria were defined that allowed to exclude one individual experiment (out of 5-6) per read-out parameter. Since these exclusion criteria differed for each study parameter, different experiments (i.e. one out of 6, and one out of 5 in the case of keratin 19 analysis) were excluded for each assay parameter. The exclusion criteria were: (i) most extreme deviation from the results trend shown by the majority among the 6 experiments, in order to avoid data distortion by outliers (which can be affected e.g. by patient's medication, medical history etc.); and (ii) failure to meet minimal quality criteria.

[4] = tested on: anagen VI hair follicles (HFs); experiment: Hair shaft elongation in hair follicle organ culture; type: cell-based, human
Description: as §1, §2
Hair shaft length measurements of HFs were performed on individual HFs using a Zeiss inverted binocular microscope with an eyepiece measuring graticule.
as §3

[5] = tested on: keratin K15; experiment: K15 quantitative immunohistochemistry in organ-cultured human scalp hair follicles; type: cell-based; conditions: human scalp HF organ culture; for Keratin-15 immunoreactivity: all concentrations tested, pooled data
Description: as §4, §1
To investigate keratin K15 expression, the tyramide signal amplification method was used as previously described (Kloepper et al., 2008). Briefly, acetone fixed cryosections were washed three times for 5 min using TNT (Tris-HCL NaCl Tween) buffer (0.1 mol/1 Tris-HCl, pH 7.5; containing 0.15 mol/1 NaCl and 0.05% Tween 20). Next, horseradish peroxidase was blocked by washing with 3% H2O2 in phosphate-buffered saline (PBS) for 15 min. Preincubation was performed with the incubation of avidin and biotin for 15 min and 5% goat normal serum in TNT for 30 min with washing steps in between. Mouse anti-human K15 (clone LHK15, Chemicon, Billerica, USA) was diluted in TNT and incubated overnight at 4° C. followed by a biotinylated secondary antibody goat anti-mouse (1:200 in TNT) for 45 min at RT. Next, streptavidin horseradish peroxidase (TSA kit; Perkin-Elmer, Boston, Mass., USA) was administered (1:100 in TNT) for 30 min at RT. […] The intensity of the immunostaining was quantified by ImageJ software (National Institutes of Health). The staining intensity of defined reference regions in the HF was measured and compared between control and N Compound A-treated groups. The percentage of K15-positive cells in comparison to the total amount of cells in the ORS was calculated.
Statistical analysis was performed using a two-tailed Student's t-test for unpaired samples. […] In order to avoid data distortion by individual experiments, rigid exclusion criteria were defined that allowed to exclude one individual experiment (out of 5-6) per read-out parameter. […]

[6] = listed as N-acetyl-(R)-(−)-3-(4-aminophenyl)-2-methoxypropionic acid

SMILES: CO[C@H](Cc1ccc(NC(C)=O)cc1)C(=O)O [Compound A, N-acetyl-(R)-(−)-3-(4-aminophenyl)-2-methoxypropionic acid]
- hair cycle effect (catagen) ([1]; all concentrations, pooled data): induced catagen; also recorded: catagen-inducing effect
- hair cycle effect (catagen) ([1]; analysis of the individual 5 experiments, percentage of each hair cycle stage, n=5): strong trend towards induction of catagen
- hair cycle effect (catagen) ([1]; analysis of the individual 5 experiments, percentage of each hair cycle stage, n=5, listed as N-acetyl-(R)-(−)-3-(4-aminophenyl)-2-methoxypropionic acid): trend toward catagen
- LDH activity in the supernatant [2]: slight increase
- LDH activity in the supernatant [2, 6]: increase
- HF toxicity under assay conditions ([2]; concluded from LDH activity): very low, if any
- Keratin 19 immunoreactivity ([3]; human scalp HF organ culture, pooled data): strongly stimulated
- Keratin 19 immunoreactivity ([3]; human scalp HF organ culture, pooled data, listed as N-acetyl-(R)-(−)-3-(4-aminophenyl)-2-methoxypropionic acid): stimulation
- number of K19-positive cells relative to control ([3]; human scalp HF organ culture): stimulating effect
- numbers of K19 positive cells ([3]; low and high concentrations, pooled data): increased numbers
- hair shaft elongation ([4]; high dose (1 mM), day 6, pooled data): slightly, but significantly, inhibited; also recorded: inhibits hair shaft elongation
- hair shaft elongation ([4]; high dose (1 mM), day 6, pooled data, listed as N-acetyl-(R)-(−)-3-(4-aminophenyl)-2-methoxypropionic acid): inhibition
- hair shaft elongation ([4]; lower concentrations (below 1 mM)): did not have an effect
- Keratin-15 immunoreactivity [5]: strongly stimulated
- Keratin-15 immunoreactivity [5, 6]: stimulation
- number of K15-positive cells [5]: did not increase
